Laboratory results: patent US20250197372A1 (priority 2020, published 2025)

Key:
Assay type in all cases: biochemical
[1] = biological target: rat maltase (partially purified alpha-glucosidase from intestinal rat powder); assay: Intestinal alpha-glucosidase assay, maltose substrate (Glucose GO Kit)
Description: (§1) Intestinal alpha-glucosidases (rat maltase and sucrase): Intestinal alpha-glucosidases act upon 1,4-alpha-glucoside bonds, breaking down disaccharides to glucose. To perform this assay, partially purified alpha-glucosidase from intestinal rat powder was incubated for 60 minutes at 37° C. with multiple dilutions of test compounds. Maltose or Sucrose respectively was then introduced as substrate to the mixture and incubated for 30 minutes at 37° C. The reaction was stopped by a 5-minute incubation at 90° C. and the resultant glucose production is detected using Sigma's Glucose GO Kit. Percent inhibition was then plotted as a function of concentration for each test compound. The IC50 was determined using a 4-PL curve fit and serves as the measure of relative inhibition of each test compound (see Table 3).

[2] = biological target: T1, recombinant alpha-glucosidase I (human full-length glucosidase I, Glu 1) (Homo sapiens, UniProt Q13724); assay: Alpha-glucosidase I assay (Amplex Red glucose detection, synthetic trisaccharide substrate); settings: Glucosidase 1; read-out: Glu 1 IC50
T1 construct: 6-His (C); made in house; host or cells: HEK-293T cells transduced with BacMam virus (virus raised in Sf9)
T1 sequence (Q13724 1-837): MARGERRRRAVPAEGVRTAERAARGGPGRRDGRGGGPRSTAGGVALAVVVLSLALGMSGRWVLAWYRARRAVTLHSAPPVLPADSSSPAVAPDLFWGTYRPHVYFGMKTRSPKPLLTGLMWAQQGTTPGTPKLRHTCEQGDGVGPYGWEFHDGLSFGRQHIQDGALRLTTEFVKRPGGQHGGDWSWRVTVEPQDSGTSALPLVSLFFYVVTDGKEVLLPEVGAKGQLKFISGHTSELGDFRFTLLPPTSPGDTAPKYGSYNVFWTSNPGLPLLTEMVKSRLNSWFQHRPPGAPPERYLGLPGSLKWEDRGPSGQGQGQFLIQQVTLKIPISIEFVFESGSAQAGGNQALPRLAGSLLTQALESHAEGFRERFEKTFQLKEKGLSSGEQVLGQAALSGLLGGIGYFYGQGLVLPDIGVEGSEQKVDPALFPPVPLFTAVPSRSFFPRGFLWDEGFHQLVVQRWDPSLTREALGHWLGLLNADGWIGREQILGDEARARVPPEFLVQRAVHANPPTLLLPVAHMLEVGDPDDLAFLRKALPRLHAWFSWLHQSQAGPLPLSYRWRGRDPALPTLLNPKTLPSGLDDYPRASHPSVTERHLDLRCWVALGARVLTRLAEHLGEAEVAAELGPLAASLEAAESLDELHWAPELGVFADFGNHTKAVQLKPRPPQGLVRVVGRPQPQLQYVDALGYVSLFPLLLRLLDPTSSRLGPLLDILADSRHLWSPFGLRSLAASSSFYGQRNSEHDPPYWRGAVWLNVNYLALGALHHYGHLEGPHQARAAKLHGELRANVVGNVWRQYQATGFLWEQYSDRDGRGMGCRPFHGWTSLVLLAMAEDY
From the text: Preparation of Human Full-length Glucosidase I: The amino acid sequence for human full-length glucosidase I was obtained from UniProt (Q13724). […] The entry vector was cloned into Kemp Proteins' BacMam Destination vector and transformed into chemically competent DH10Bac E. coli cells to produce recombinant glucosidase I bacmids. Bacmid isolates were obtained following two rounds of blue-white screening and they were transfected into Sf9 cells cultivated in serum-free medium (Thermo Fisher Scientific). Four days post-transfection the culture supernatants containing virus were harvested and filter sterilized. […] A multiplicity of infection (MOI, ratio of virus to cells) of 4 was selected. Soluble glucosidase I was detected by anti-His western blots in the soluble cell extract following extraction with 1% V/V NP40 for 30 minutes at 0° C. Productions and purifications of glucosidase I were carried out at scales ranging from 1-liter to 10-liters. […] In another example production at the 10-liter scale was performed in stirred-tank bioreactors at 27° C. and 80 rpm with dissolved oxygen level at 50% of oxygen in air and pH between 7.0 and 7.2. Cells were transduced at MOI of 4 and the cell pellet was harvested at 48 hours post-transduction using centrifugation.
The pellet from a 10-liter culture was lysed by resuspending the pellet into 1-liter of 50 mM NaH2PO4—H2O+300 mM NaCl+10 mM Imidazole+1 mM PMSF+1% V/V NP40 pH 8. The suspension was incubated on ice for 30 minutes and clarified at 500×g and 4° C. The supernatant was collected and clarified at 20,000×g for 30 minutes at 4° C. and the supernatant was collected and filtered through a 0.2 micron filter. […] The column was washed with 20 column volumes (CV) of 50 mM NaH2PO4-H2O+300 mM NaCl+10 mM Imidazole pH 8 and eluted using a linear gradient of 0-60% 50 mM NaH2PO4-H2O+300 mM NaCl+500 mM Imidazole pH 8 over 90 minutes. at 5 mL per minute. Fractions (25 mL) were collected and analyzed by SDS PAGE and Western Blot (reducing anti-His). Fractions containing purified glucosidase I were pooled and dialyzed into storage buffer (20 mM Tris+300 mM NaCl+50 mM L-arginine+10 mM EDTA+0.01% V/V Tween 80 pH 7.5). The final material was filter sterilized and stored at 4° C. and the working dilution confirmed by a use-test in the indicated assay conditions prior to use.
Alpha-glucosidase I Assay: The assay was performed by incubating recombinant alpha-glucosidase I enzyme with multiple dilutions of test compounds for 60 minutes at 37° C. A synthetic trisaccharide substrate analog was then introduced to the mixture for 90 minutes at 37° C. The reaction was then stopped with 1.5M Tris (pH 8). In the absence of inhibition, the terminal glucose of the substrate was hydrolyzed by the enzyme. The D-glucose product was detected using Amplex Red Glucose/Glucose Oxidase Assay Kit (Invitrogen) following the manufacturer's directions where glucose oxidase reacts with D-glucose to form D-gluconolactone and H2O2 which then reacts with the Amplex Red reagent to generate a red-fluorescent oxidation product (560 nm, excitation; 590 nm, emission). […] Percent inhibition is plotted as a function of concentration for each compound, compared to control reactions. The IC50 was determined using a 4-PL curve fit and serves as a measure of relative inhibitory activity of each test compound (see Table 3).

[3] = biological target: rat sucrase (partially purified alpha-glucosidase from intestinal rat powder) (Rattus norvegicus, UniProt P23739); assay: Intestinal alpha-glucosidase assay, sucrose substrate (Glucose GO Kit)
Sequence of rat sucrase (partially purified alpha-glucosidase from intestinal rat powder) (P23739 whole entry): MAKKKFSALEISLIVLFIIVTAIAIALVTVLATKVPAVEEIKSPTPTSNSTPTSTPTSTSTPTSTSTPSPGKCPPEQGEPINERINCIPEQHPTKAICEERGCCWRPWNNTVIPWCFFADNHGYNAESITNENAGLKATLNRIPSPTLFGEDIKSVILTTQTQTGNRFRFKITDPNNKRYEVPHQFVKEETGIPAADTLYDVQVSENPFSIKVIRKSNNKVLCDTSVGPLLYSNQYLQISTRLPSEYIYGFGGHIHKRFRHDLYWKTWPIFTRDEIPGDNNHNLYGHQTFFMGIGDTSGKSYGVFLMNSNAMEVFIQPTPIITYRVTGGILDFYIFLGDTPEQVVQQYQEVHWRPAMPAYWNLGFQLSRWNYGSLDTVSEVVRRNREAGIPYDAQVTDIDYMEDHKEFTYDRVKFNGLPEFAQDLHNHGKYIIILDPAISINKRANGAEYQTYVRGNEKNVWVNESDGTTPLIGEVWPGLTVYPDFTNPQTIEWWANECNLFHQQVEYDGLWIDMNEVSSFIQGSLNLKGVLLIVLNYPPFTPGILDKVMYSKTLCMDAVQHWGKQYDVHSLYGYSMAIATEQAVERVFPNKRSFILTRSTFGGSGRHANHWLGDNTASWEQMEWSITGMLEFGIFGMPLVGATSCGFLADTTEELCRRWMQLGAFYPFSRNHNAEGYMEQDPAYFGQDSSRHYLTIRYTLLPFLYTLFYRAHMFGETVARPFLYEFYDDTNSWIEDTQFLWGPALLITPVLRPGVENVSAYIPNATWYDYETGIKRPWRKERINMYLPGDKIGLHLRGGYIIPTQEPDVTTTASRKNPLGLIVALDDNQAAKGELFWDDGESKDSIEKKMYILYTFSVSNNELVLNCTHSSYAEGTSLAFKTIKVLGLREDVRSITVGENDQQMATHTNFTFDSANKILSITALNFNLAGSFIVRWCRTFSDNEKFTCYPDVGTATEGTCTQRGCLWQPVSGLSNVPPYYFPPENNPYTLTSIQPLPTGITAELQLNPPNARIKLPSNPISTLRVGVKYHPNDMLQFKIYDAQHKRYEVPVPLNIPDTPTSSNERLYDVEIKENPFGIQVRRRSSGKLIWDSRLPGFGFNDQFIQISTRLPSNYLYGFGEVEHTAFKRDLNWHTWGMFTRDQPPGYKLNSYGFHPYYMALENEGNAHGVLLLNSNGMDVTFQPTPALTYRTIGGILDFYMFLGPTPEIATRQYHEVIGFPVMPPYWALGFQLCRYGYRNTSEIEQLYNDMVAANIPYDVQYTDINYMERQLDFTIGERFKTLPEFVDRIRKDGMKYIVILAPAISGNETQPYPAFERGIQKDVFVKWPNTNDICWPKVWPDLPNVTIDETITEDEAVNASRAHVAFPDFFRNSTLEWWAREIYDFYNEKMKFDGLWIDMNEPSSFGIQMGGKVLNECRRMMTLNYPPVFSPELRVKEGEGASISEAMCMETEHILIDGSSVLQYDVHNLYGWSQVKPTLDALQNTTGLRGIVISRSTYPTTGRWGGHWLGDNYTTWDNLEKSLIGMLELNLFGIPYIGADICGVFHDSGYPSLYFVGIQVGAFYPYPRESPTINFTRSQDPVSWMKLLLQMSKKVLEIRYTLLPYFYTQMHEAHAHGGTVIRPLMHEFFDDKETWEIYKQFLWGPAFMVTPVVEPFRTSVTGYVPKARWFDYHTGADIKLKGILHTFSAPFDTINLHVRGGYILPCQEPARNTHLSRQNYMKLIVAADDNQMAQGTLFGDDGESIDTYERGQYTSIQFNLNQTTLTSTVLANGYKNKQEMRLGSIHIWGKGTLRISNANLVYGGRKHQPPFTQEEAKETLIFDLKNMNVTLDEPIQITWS
Description: as §1

[4] = biological target: T2, recombinant alpha-glucosidase II (murine full-length glucosidase II, alpha and beta subunits, Glu 2) (Mus musculus, UniProt Q8BHN3); assay: Alpha-glucosidase II assay (4-methylumbelliferyl-alpha-D-pyranoside substrate, fluorescence); settings: Glucosidase 2; read-out: Glu2 IC50
T2 construct: made in house; host or cells: HEK-293T cells transduced with BacMam viruses (75% alpha, 25% beta); protein harvested from culture supernatant
T2 sequence (O08795 15-521): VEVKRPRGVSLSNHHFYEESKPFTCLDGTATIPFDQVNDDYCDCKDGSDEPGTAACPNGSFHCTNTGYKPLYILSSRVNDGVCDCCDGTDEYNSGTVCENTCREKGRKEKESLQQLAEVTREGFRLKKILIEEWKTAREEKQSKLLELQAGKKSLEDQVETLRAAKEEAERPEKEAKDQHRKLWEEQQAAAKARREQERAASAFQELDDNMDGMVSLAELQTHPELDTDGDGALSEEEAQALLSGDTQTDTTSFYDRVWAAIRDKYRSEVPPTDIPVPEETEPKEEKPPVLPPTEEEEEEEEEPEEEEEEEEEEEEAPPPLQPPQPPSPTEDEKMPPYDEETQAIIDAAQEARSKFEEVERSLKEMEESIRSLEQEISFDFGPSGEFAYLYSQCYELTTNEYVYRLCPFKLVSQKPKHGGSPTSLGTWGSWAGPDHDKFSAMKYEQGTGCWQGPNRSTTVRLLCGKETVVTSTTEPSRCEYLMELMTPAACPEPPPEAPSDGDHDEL
T2 sequence (Q8BHN3 33-944): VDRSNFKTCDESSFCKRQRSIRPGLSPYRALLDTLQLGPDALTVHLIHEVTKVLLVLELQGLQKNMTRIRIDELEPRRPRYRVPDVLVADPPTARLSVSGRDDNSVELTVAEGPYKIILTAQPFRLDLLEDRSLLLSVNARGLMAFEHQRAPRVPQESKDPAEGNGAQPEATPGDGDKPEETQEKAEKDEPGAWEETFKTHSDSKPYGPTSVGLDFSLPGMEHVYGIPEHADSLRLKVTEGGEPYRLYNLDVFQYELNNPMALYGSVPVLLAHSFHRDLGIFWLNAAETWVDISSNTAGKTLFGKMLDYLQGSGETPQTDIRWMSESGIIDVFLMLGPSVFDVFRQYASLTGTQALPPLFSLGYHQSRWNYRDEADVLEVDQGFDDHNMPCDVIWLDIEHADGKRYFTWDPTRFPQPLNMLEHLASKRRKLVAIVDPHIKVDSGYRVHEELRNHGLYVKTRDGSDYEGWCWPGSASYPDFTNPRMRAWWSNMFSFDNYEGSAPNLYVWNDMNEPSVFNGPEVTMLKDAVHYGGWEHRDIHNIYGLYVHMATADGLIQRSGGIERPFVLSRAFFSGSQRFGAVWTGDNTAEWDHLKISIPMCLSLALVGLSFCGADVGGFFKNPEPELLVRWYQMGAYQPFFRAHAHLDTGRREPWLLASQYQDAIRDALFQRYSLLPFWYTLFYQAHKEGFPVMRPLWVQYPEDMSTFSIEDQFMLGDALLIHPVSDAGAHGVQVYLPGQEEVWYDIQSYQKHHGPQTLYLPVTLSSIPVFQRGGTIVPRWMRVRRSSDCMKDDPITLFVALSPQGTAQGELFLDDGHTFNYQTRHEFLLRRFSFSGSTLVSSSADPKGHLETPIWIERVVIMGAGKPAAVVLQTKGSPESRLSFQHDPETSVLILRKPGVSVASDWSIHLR

[5] = biological target: recombinant human GAA (acid alpha-glucosidase) (Homo sapiens, UniProt P10253); assay: Acid alpha-glucosidase (GAA) assay (4-methylumbelliferyl-alpha-D-pyranoside substrate, fluorescence)
Description: Acid alpha-glucosidase (GAA): To analyze inhibitory effects of a test compound, commercially available recombinant human GAA was incubated with multiple dilutions of test compound for 60 minutes at 37° C. 4-methylumbelliferyl-alpha-D-pyranoside was then introduced to the mixture as the substrate. 1,4-methyllumbelliferone is generated, and after an incubation for 20 minutes at 37° C., the reaction was stopped with the stop solution (0.5M glycine 0.3M NaOH pH 10). 1,4-methyllumbelliferone is detected by fluorescence (excitation at 365 nm, emission at 440 nm). Relative fluorescence compared to untreated enzymatic activity and test compound concentration is plotted as a function of percent inhibition. The IC50 is determined using a 4-PL curve fit as the measure of relative inhibitory activity of each test compound (see Table 3).

| SMILES | IC50 [1] | IC50 [2] | IC50 [3] | IC50 [4] | IC50 [5] |
| --- | --- | --- | --- | --- | --- |
| O=[N+]([O-])c1cc(CN2CCCO2)ccc1NCc1ccc(CN2C[C@H](O)[C@@H](O)[C@H](O)[C@H]2CO)cc1 [Compound 1098] | 13 nM | 23 nM | 40 nM | 83 nM | 175 nM |
| [N-]=[N+]=Nc1ccc(NCC2COC(CN3C[C@H](O)[C@@H](O)[C@H](O)[C@H]3CO)CO2)c([N+](=O)[O-])c1 (stereo partly drawn) [Compound 1280, (2R,3R,4R,5S)-1-[(5-{[(4-azido-2-nitrophenyl)amino]methyl}-1,4-dioxan-2-yl)methyl]-2-(hydroxymethyl)piperidine-3,4,5-triol] |  | 1460 nM |  | 194 nM |  |
| OC[C@@H]1[C@@H](O)[C@H](O)[C@@H](O)CN1Cc1ccc(CNc2ccc(-c3cccnn3)cc2)cc1 [Compound 1095, (2R,3R,4R,5S)-2-(hydroxymethyl)-1-{[4-({[4-(pyridazin-3-yl)phenyl]amino}methyl)phenyl]methyl}piperidine-3,4,5-triol] | 11 nM | 12 nM | 13 nM | 657 nM | 243 nM |
